From patent US20260176285A1, “SALT OF DIOXANE QUINOLINE COMPOUND, CRYSTAL FORM THEREOF, PREPARATION METHODS THEREFOR AND USES THEREOF” (Beijing Scitech-MQ Pharmaceuticals Limited, priority 2022, published 2026)

What was measured:
[1] = Hygroscopicity by dynamic moisture sorption (DVS); format: physicochemical; details: DVS, listed as Mucate salt crystal form A-I
In short: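 Mass change of salt and free-form crystal samples recorded at 25° C over a 0% RH-95% RH-0% RH cycle. Steps were 10% RH (last step 5%) with a dm/dt equilibrium criterion of 0.002%/min.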

[2] = Dynamic solubility in water, SGF, FaSSIF and FeSSIF; format: physicochemical; design: S (dynamic solubility): unit not given here; details: listed as Mucate salt crystal form A-I; for S (dynamic solubility): 37° C., feed 10 mg/mL
In short: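 Free form and salt crystal forms tested over time in water, SGF (pH 1.8), FaSSIF (pH 6.5) and FeSSIF (pH 5.0), simulated fluids made with SIF powder. At each time point samples were centrifuged, passed through 0.45 μm PTFE, and filtrate concentration (HPLC) and pH measured.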

[3] = Solid-state stability evaluation (XRPD, HPLC); format: physicochemical; details: listed as Mucate salt crystal form A-I
Method: The following 6 test samples were placed under 25° C./60% RH and 40° C./75% RH conditions for 1 week, and then the physical and chemical stability of the samples was tested by XRPD and HPLC.
At the same time, after the p-toluenesulfonate salt crystal form A-II and crystal form B-III solids were placed at 80° C. for 24 hours, the physical and chemical stability of the samples were tested by XRPD and HPLC.

[4] = test system: human lung cancer cells EBC-1; test: Efficacy in nude mouse tumor-bearing model of human lung cancer cells EBC-1; format: in vivo, Balb/c nude mouse
In short: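 Female BALB/c nude mice bearing subcutaneous EBC-1 xenografts (5×10^6 cells; 150-200 mm^3 at start), 6/group, dosed orally once daily for about 3 weeks at 15 and 7.5 mg/kg (free-base equivalent) in 0.1% CMC-Na. Tumors measured twice weekly; T/C (%) from relative tumor volume versus vehicle.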

O=C(Nc1ccc(F)cc1)C1(C(=O)Nc2ccc(Oc3ccnc4cc(OCCCN5CCOCC5)c5c(c34)OCCO5)c(F)c2)CC1 [Example 1, N-(3-fluoro-4-((5-(3-morpholinopropoxy)-2,3-dihydro-[1,4]dioxano[2,3-f]quinolin-10-yl)oxy)phenyl)-N-(4-fluorophenyl)cyclopropane-1,1-dicarboxamide]
Moisture adsorption (25° C./80% RH) ([1]; 25° C./80% RH): 2.09% | Hygroscopicity ([1]; 25° C.): Hygroscopic | S (dynamic solubility) ([2]; FaSSIF, 1 hour): 0.0036 | pH of the filtrate ([2]; FaSSIF, 1 hour): 6.3 | S (dynamic solubility) ([2]; FaSSIF, 2 hours): 0.0048 | pH of the filtrate ([2]; FaSSIF, 2 hours): 6.2 | S (dynamic solubility) ([2]; FaSSIF, 4 hours): 0.0042 | pH of the filtrate ([2]; FaSSIF, 4 hours): 6.2 | S (dynamic solubility) ([2]; FaSSIF, 24 hours): 0.0070 | pH of the filtrate ([2]; FaSSIF, 24 hours): 5.5 | S (dynamic solubility) ([2]; FeSSIF, 1 hour): 1.3 | pH of the filtrate ([2]; FeSSIF, 1 hour): 4.9 | S (dynamic solubility) ([2]; FeSSIF, 2 hours): 1.6 | pH of the filtrate ([2]; FeSSIF, 2 hours): 4.9 | S (dynamic solubility) ([2]; FeSSIF, 4 hours): 1.8 | pH of the filtrate ([2]; FeSSIF, 4 hours): 4.9 | S (dynamic solubility) ([2]; FeSSIF, 24 hours): 1.8 | pH of the filtrate ([2]; FeSSIF, 24 hours): 4.9 | S (dynamic solubility) ([2]; H2O, 1 hour): 0.11 | pH of the filtrate ([2]; H2O, 1 hour): 4.5 | S (dynamic solubility) ([2]; H2O, 2 hours): 0.11 | pH of the filtrate ([2]; H2O, 2 hours): 4.4 | S (dynamic solubility) ([2]; H2O, 4 hours): 0.13 | pH of the filtrate ([2]; H2O, 4 hours): 4.8 | S (dynamic solubility) ([2]; H2O, 24 hours): 0.11 | pH of the filtrate ([2]; H2O, 24 hours): 4.7 | S (dynamic solubility) ([2]; SGF, 1 hour): 5.4 | pH of the filtrate ([2]; SGF, 1 hour): 3.1 | S (dynamic solubility) ([2]; SGF, 2 hours): 5.2 | pH of the filtrate ([2]; SGF, 2 hours): 3.1 | S (dynamic solubility) ([2]; SGF, 4 hours): 5.1 | pH of the filtrate ([2]; SGF, 4 hours): 3.1 | S (dynamic solubility) ([2]; SGF, 24 hours): 5.3 | pH of the filtrate ([2]; SGF, 24 hours): 3.2 | Purity ([3]; 25° C./60% RH, 1 week): 99.54 area % | Purity/initial purity ([3]; 25° C./60% RH, 1 week): 100.0% | Purity ([3]; 40° C./75% RH, 1 week): 99.56 area % | Purity/initial purity ([3]; 40° C./75% RH, 1 week): 100.0% | Purity ([3]; Starting): 99.56 area % | T/C (relative tumor proliferation rate) ([4]; 7.5 mg/kg oral once a day, day 3): 71.1% | T/C (relative tumor proliferation rate) ([4]; 7.5 mg/kg oral once a day, day 7): 60.2% | T/C (relative tumor proliferation rate) ([4]; 7.5 mg/kg oral once a day, day 10): 49.9% | T/C (relative tumor proliferation rate) ([4]; 7.5 mg/kg oral once a day, day 14): 46.9% | T/C (relative tumor proliferation rate) ([4]; 7.5 mg/kg oral once a day, day 18): 47.4% | T/C (relative tumor proliferation rate) ([4]; 7.5 mg/kg oral once a day, day 21): 43.73% | T/C (relative tumor proliferation rate) ([4]; 15 mg/kg oral once a day, day 3): 66.3% | T/C (relative tumor proliferation rate) ([4]; 15 mg/kg oral once a day, day 7): 40.4% | T/C (relative tumor proliferation rate) ([4]; 15 mg/kg oral once a day, day 10): 30.9% | T/C (relative tumor proliferation rate) ([4]; 15 mg/kg oral once a day, day 14): 25.3% | T/C (relative tumor proliferation rate) ([4]; 15 mg/kg oral once a day, day 18): 25.4% | T/C (relative tumor proliferation rate) ([4]; 15 mg/kg oral once a day, day 21): 19.41%
